Laboratory results: PubChem BioAssay AID1918938 (Molecular Pharmacology Branch, DTP, NCI, 2023)

System: 556581-035-R-J1-PDC complex spheroid viability
Test: Anticancer human tumor 556581-035-R-J1-PDC patient-derived ovarian carcinoma cell line growth inhibition
Settings: for IC50: curve of first compound; for viability, T/C: stronger effect = lower value
Procedure, shortened: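 Multicellular complex spheroids of tumor cells with human endothelial cells (HUVEC) and mesenchymal stem cells; the LSD1 inhibitor iadademstat was combined with standard-of-care or investigational agents. Top concentration at or near clinical Cmax, half-log dilutions; final DMSO ≤0.25%.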
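Further: spheroids exposed to agents for seven days.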
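Wherever viability, T/C is given: 100% = DMSO vehicle control wells.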

COc1ccc([C@@H](O)c2cc(-c3ncnc4cc(N5CCOCC5)ccc34)c(F)cc2Cl)nn1 + NC1CC1c1ccc(-c2cccc(O)c2)cc1
IC50 (second compound 0.1 µM): 0.853 µM | IC50 (second compound 0.316 µM): 0.932 µM | IC50 (second compound 1 µM): 1 µM | IC50 (second compound 3.16 µM): 0.621 µM | IC50 (second compound 10 µM): 1.05 µM | viability, T/C (second compound 0.1 µM, first compound 0.0316 µM): 102% | viability, T/C (second compound 0.1 µM, first compound 0.1 µM): 87% | viability, T/C (second compound 0.1 µM, first compound 0.316 µM): 68.2% | viability, T/C (second compound 0.1 µM, first compound 1 µM): 46.3% | viability, T/C (second compound 0.1 µM, first compound 3.16 µM): 34.5% | viability, T/C (second compound 0.1 µM, first compound 10 µM): 26.9% | viability, T/C (second compound 0.316 µM, first compound 0.0316 µM): 85.2% | viability, T/C (second compound 0.316 µM, first compound 0.1 µM): 75.9% | viability, T/C (second compound 0.316 µM, first compound 0.316 µM): 62.7% | viability, T/C (second compound 0.316 µM, first compound 1 µM): 48.4% | viability, T/C (second compound 0.316 µM, first compound 3.16 µM): 37.9% | viability, T/C (second compound 0.316 µM, first compound 10 µM): 27.3% | viability, T/C (second compound 1 µM, first compound 0.0316 µM): 82.5% | viability, T/C (second compound 1 µM, first compound 0.1 µM): 79.8% | viability, T/C (second compound 1 µM, first compound 0.316 µM): 55.1% | viability, T/C (second compound 1 µM, first compound 1 µM): 52.6% | viability, T/C (second compound 1 µM, first compound 3.16 µM): 38.7% | viability, T/C (second compound 1 µM, first compound 10 µM): 25.3% | viability, T/C (second compound 3.16 µM, first compound 0.0316 µM): 82.8% | viability, T/C (second compound 3.16 µM, first compound 0.1 µM): 84.2% | viability, T/C (second compound 3.16 µM, first compound 0.316 µM): 64.5% | viability, T/C (second compound 3.16 µM, first compound 1 µM): 39.7% | viability, T/C (second compound 3.16 µM, first compound 3.16 µM): 34% | viability, T/C (second compound 3.16 µM, first compound 10 µM): 30.1% | viability, T/C (second compound 10 µM, first compound 0.0316 µM): 97.4% | viability, T/C (second compound 10 µM, first compound 0.1 µM): 79.6% | viability, T/C (second compound 10 µM, first compound 0.316 µM): 64.8% | viability, T/C (second compound 10 µM, first compound 1 µM): 48.5% | viability, T/C (second compound 10 µM, first compound 3.16 µM): 41.3% | viability, T/C (second compound 10 µM, first compound 10 µM): 24.4%
